Type in all cases: functional
In assay [1] the test system is Mycobacterium tuberculosis. Description: Minimum inhibitory concentration tested against Mycobacterium tuberculosis H37Rv ATCC 27294.
For assay [2], the system named is Mycobacterium tuberculosis. Description: Minimum inhibitory concentration tested against Mycobacterium tuberculosis sensitive clinical isolates; Range:1-2 ug/ml.
The test system of assay [3] is Mycobacterium intracellulare. The experiment in a line: Minimum inhibitory concentration tested against Mycobacterium intracellular ATCC 13950.
A further assay concerns Mycobacterium avium. The experiment in a line: Minimum inhibitory concentration tested against Mycobacterium avium ATCC 49601.
For assay [4], the system named is Mycobacterium tuberculosis. The experiment in a line: Minimum inhibitory concentration tested against Mycobacterium tuberculosis sensitive clinical isolates.
Assay [5] has as its system Mycobacterium tuberculosis. The experiment in a line: Minimum inhibitory concentration tested against Mycobacterium tuberculosis sensitive clinical isolates; Range 8-16 ug/mL.
In assay [6] the test system is Mycobacterium tuberculosis. The experiment in a line: Minimum inhibitory concentration tested against Mycobacterium tuberculosis sensitive clinical isolates; Range:1-4 ug/ml.
In assay [7] the test system is Mycobacterium tuberculosis. Description: Minimum inhibitory concentration tested against Mycobacterium tuberculosis sensitive clinical isolates; Range 0.125-0.25 ug/ml.

As usually defined, the MIC is the smallest concentration in the dilution series that meets the test's criterion for growth inhibition. Read a low MIC as a more susceptible organism.

In brackets after ≈: the same amount, converted by molar mass.

In the case of `O=C1c2ccccc2C(=O)N1CCCCCCN1CCN(CC/N=c2/cc3n(-c4ccc(Cl)cc4)c4ccccc4nc-3cc2Nc2ccc(Cl)cc2)CC1`, the MIC in assay [1] was 1 µg/mL (≈ 1.29 µM); in assay [2], 2 µg/mL (≈ 2.59 µM); in assay [3], 8 µg/mL (≈ 10.4 µM); against Mycobacterium avium it was 16 µg/mL (≈ 20.7 µM).

For the compound `O=C1c2cccc3cccc(c23)C(=O)N1CCCN1CCN(CC/N=c2/cc3n(-c4ccc(Cl)cc4)c4ccccc4nc-3cc2Nc2ccc(Cl)cc2)CC1`, the MIC (in assay [1]; in assay [4]; in assay [3]; against Mycobacterium avium) was above 16 µg/mL each time.

`O=C1c2ccccc2C(=O)N1CCCCN1CCN(CC/N=c2/cc3n(-c4ccc(Cl)cc4)c4ccccc4nc-3cc2Nc2ccc(Cl)cc2)CC1`: the MIC (in assay [1]; in assay [4]; in assay [3]; against Mycobacterium avium) was above 16 µg/mL each time.

In the case of `O=C1c2cccc3cccc(c23)C(=O)N1CCCCCCN1CCN(CC/N=c2/cc3n(-c4ccc(Cl)cc4)c4ccccc4nc-3cc2Nc2ccc(Cl)cc2)CC1`, the MIC in assay [1] is 16 µg/mL (≈ 19.4 µM); in assay [3], above 16 µg/mL; against Mycobacterium avium, above 16 µg/mL; in assay [5], 16 µg/mL (≈ 19.4 µM).

Take `O=C1c2cccc3cccc(c23)C(=O)N1CCCCCN1CCN(CC/N=c2/cc3n(-c4ccc(Cl)cc4)c4ccccc4nc-3cc2Nc2ccc(Cl)cc2)CC1`: the minimal inhibitory concentration (MIC) (in assay [1]; in assay [4]; in assay [3]; against Mycobacterium avium) was above 16 µg/mL throughout.

Take `O=C1c2cccc3cccc(c23)C(=O)N1CCCCN1CCN(CC/N=c2/cc3n(-c4ccc(Cl)cc4)c4ccccc4nc-3cc2Nc2ccc(Cl)cc2)CC1`: the MIC (in assay [1]; in assay [4]; in assay [3]; in the assay with Mycobacterium avium) was above 16 µg/mL throughout.

Regarding `O=C1c2ccccc2C(=O)N1CCCCCN1CCN(CC/N=c2/cc3n(-c4ccc(Cl)cc4)c4ccccc4nc-3cc2Nc2ccc(Cl)cc2)CC1`, the minimum inhibitory concentration (MIC) in assay [1] came out at 1 µg/mL (≈ 1.32 µM); in assay [3] it was 8 µg/mL (≈ 10.5 µM); against Mycobacterium avium it was 16 µg/mL (≈ 21.1 µM); in assay [6], 4 µg/mL (≈ 5.27 µM).

`O=C1c2ccccc2C(=O)N1CCCN1CCN(CC/N=c2/cc3n(-c4ccc(Cl)cc4)c4ccccc4nc-3cc2Nc2ccc(Cl)cc2)CC1`: the MIC (in assay [1]; in assay [4]; in assay [3]; against Mycobacterium avium) was above 16 µg/mL throughout.

Consider `NNC(=O)c1ccncc1` [ISONIAZID], for which the MIC was 0.25 µg/mL (≈ 1.82 µM) in assay [1], 0.25 µg/mL (≈ 1.82 µM) in assay [7], 8 µg/mL (≈ 58.3 µM) in assay [3] and above 16 µg/mL in the assay on Mycobacterium avium.

The values above are taken from ChEMBL document CHEMBL1143511, “Antitubercular agents. Part 1: synthesis of phthalimido- and naphthalimido-linked phenazines as new prototype antitubercular agents” (2005).
